Values joined by “and” are separate entries in the source; they are usually repeats but may differ in a detail not shown here. Identical values can stand only once.
Legend:
PC3 cells [1] = assay: transwell migration assay, PC3 cells; type: cell-based, human; conditions: for effect on PC3 cell migration (migration index): compound alone, concentration range 0.1 to 100 μM, 5 h, compared with 14; for effect of chemotherapeutic drugs on PC3 cell migration: drug alone, AR-negative cells
Protocol: (§1) In vitro transwell migration assays were conducted as described previously. Briefly, the outside of the transwell inserts (BD Biosciences, San Jose, CA, USA) were coated with 50 µL of rat tail collagen (50 μg/mL; BD Biosciences, San Jose, CA, USA) overnight at 4 °C. The next day, 50 μL of the aforementioned rat tail collagen was added for 1 h at room temperature into the transwell inserts to coat the inside of the membranes. DU145, PC3 and LNCaP cells were trypsinized and suspended at the appropriate density (3 × 10^5 cells/insert for DU145 and PC3, and 5 × 10^5 cells/insert for LNCaP) in MEM or RPMI containing 0.2% BSA (Sigma-Aldrich, St. Louis, MO, USA). Chemoattractant solution, used as the positive control, was made by diluting the epidermal growth factor (EGF) (10 ng/mL) into MEM (PC3 and DU145) or RPMI (LNCaP) supplemented with 0.2% BSA. Media containing 0.2% BSA served as a control. Control and EGF solutions (400 μL) were added into the wells of a 24-well plate. Aliquots of 100 μL of cell suspensions, treated with or without the different compounds at several concentrations, were loaded into the transwell inserts, and the plates were incubated at 37 °C for 5 h (DU145 and PC3) or 24 h (LNCaP). The cells inside the transwell inserts were removed by cotton swabs, and the cleaned inserts were fixed with 350 μL of 4% paraformaldehyde (pH 7.5) for 20 min at room temperature. Cells that had migrated to the outside of the transwell insert membrane were stained with 3 ng/mL of DAPI solution (Thermo Fisher Scientific, Eugene, OR, USA), and images of five non-overlapping fields were captured using an Axiovert 200M, Carl Zeiss (Thornwood, NY, USA) microscope. The number of stained nuclei were determined with automatic counting using image analysis software (ZEN 2012 (blue edition, Version 1.1.1.0); Carl Zeiss Microscopy GmbH, Oberkochen, Germany). The results were expressed as a migration index defined as the average number of cells per field for test substance/the average number of cells per field for the medium control.

LNCaP cells [2] = assay: MTS viability, LNCaP cells; type: cell-based; conditions: Homo sapiens, 72 h, n=3
Protocol: (§2) Figure S1A. Effects of compounds 3- 7, 10, 12, 13 and 15 on the viability of LNCaP,
(§3) MDA-MD-231, MCF-7 and Vero cells. The cells are incubated with the drugs for 72 h
(§4) and viability evaluated with MTS. NI = IC50 greater than 100 μM. n=3
(§5) Compound LNCaP (µM) MDA-MB-231 (µM) MCF-7 (µM) Vero (µM)

MDA-MB-231 cells = assay: MTS viability, MDA-MB-231 cells; type: cell-based; conditions: Homo sapiens, 72 h, n=3
Protocol: as §2, §3, §4, §5

MCF-7 cells = assay: MTS viability, MCF-7 cells; type: cell-based; conditions: Homo sapiens, MCF7, 72 h, n=3
Protocol: as §2, §3, §4, §5

Vero cells = assay: MTS viability, Vero cells; type: cell-based; conditions: Chlorocebus sabaeus, 72 h, n=3
Protocol: as §2, §3, §4, §5

LNCaP cells [3] = assay: transwell migration assay, LNCaP cells; type: cell-based, human; conditions: for effect on LNCaP cell migration (migration index): drug alone at several concentrations; for effect on LNCaP cell migration (migration index) / concentration of maximum induction of LNCaP cell migration: 24 h; for concentration of maximum induction of LNCaP cell migration: drug alone
Protocol: as §1

PC3 cells [4] = test system: PC3 cells; design: method as in PMID 32575572; conditions: cited from earlier work
DU145 cells [5] = test system: DU145 cells; design: method as in PMID 32575572; conditions: cited from earlier work
DU145 cells [6] = assay: transwell migration assay, DU145 cells; type: cell-based, human; conditions: drug alone, AR-negative cells
Protocol: as §1

Gαi2 protein [7] = assay: Western blot of Gαi2 protein levels in LNCaP cells; type: cell-based, human; conditions: 24 h; enzalutamide 2.5 μM, bicalutamide 2.5 μM, SBI-I-19 2 μM, SAHA 4 μM
Protocol: (§6) Docetaxel, a taxoid anti-cancer agent, was purchased from Millipore-Sigma and dissolved in DMSO at a starting concentration of 100 μM. SAHA, a commercially available FDA-approved HDACi, was purchased from Sigma-Aldrich (St. Louis, MO, USA) and dissolved in DMSO at a starting concentration of 100 mM. SBI-I-19, an HDAC inhibitor conjugated with anti-androgen, was dissolved in DMSO at a starting concentration of 50 mM. The anti-androgen drugs enzalutamide and bicalutamide were purchased from Selleckchem (Houston, TX, USA) and Sigma-Aldrich, respectively. Anti-androgens were prepared at a stock concentration of 100 mM (enzalutamide) and 10 mM (bicalutamide) in DMSO. The Gαi2 inhibitor (compound 14) was diluted in DMSO at a stock concentration of 100 mM, as previously described. All drugs used in the study were then diluted in the culture media to the final concentrations used in various assays. To determine the effects of specific treatments on the levels of Gαi2 protein, LNCaP and PC3 cells (10^6 cells) were cultured overnight in 10 cm^2 culture dishes. The cells were then treated with anti-androgens and other agents for 24 h and the total cell lysates were collected for Western blot analyses.
Western blot analyses were performed as described previously. Briefly, cell lysates were mixed with Laemmeli’s buffer (62.5 mM Tris, pH 6.8, 2% sodium dodecyl sulfate, 5% β–mercaptoethanol and 10% glycerol). Samples (30–35 µg proteins) were separated on 10% SDS-PAGE gels and transferred to polyvinylidene difluoride (PVDF) membranes (Millipore Corp., Bedford, MA, USA). After blocking the membranes with 5% fat-free milk in TBST (50 mM Tris, pH 7.5, containing 0.15 M NaCl, and 0.05% Tween 20) for 1 h at room temperature, the membranes were incubated with specific primary antibodies at appropriate dilutions (1:5000 for Gαi2; 1:3000 for α-tubulin) overnight at 4 °C. After washing, the blots were incubated with appropriate secondary antibodies. The blots were then developed in Millipore Luminata Forte (EMD Millipore) for 5 min and visualized using a BioRad ChemiDoc Imaging System, according to the manufacturer’s instructions. The density of specific protein bands was determined using ImageJ 1.53 K image analyses software.

Gαi2 protein [8] = assay: Western blot of Gαi2 protein levels in PC3 cells; type: cell-based, human; conditions: 24 h; docetaxel 1 nM
Protocol: as §6
Western blot analyses were performed as described previously. […] The density of specific protein bands was determined using ImageJ 1.53 K image analyses software.

For `CC(Oc1ccc([S+](C)[O-])cc1)c1cc2ccccc2n1C` (centres unmarked) [Compound 13], the “effect on PC3 cell migration (migration index)” value (PC3 cells [1]) was “less effective”, the IC50 (LNCaP cells [2]) was greater than 100 µM and the IC50 (MDA-MB-231 cells) was greater than 100 µM. The IC50 (MCF-7 cells) was greater than 100 µM and the IC50 (Vero cells) was greater than 100 µM.
For `C/C(=N\c1ccc(O)cc1)c1cc2ccccc2n1C` [Compound 14], the “effect on docetaxel-induced PC3 cell migration” value (PC3 cells [1]; compound 14 at 25 μM, simultaneous treatment with docetaxel) is listed as “blocked the stimulatory effects of docetaxel”, the “effect on HDACi- and anti-androgen-induced LNCaP cell migration” value (LNCaP cells [3]; compound 14 at 25 μM, simultaneous treatment with enzalutamide, bicalutamide, SAHA or SBI-I-19) is listed as “blocked” and the “EGF-induced migration of PC3 cells” value (PC3 cells [4]) is listed as “attenuated the EGF-induced migration”. The “EGF-induced migration of DU145 cells” value (DU145 cells [5]) was “attenuated the EGF-induced migration”.
With `CC(Oc1ccc(O)cc1)c1cc2ccccc2n1C` (centres unmarked) [Compound 15] the “effect on PC3 cell migration (migration index)” value (PC3 cells [1]) was “did not inhibit the migration of PC3 cells at the maximum concentration tested”, the IC50 (LNCaP cells [2]) was greater than 100 µM and the IC50 (MDA-MB-231 cells) was greater than 100 µM. It also gave an IC50 (MCF-7 cells) greater than 100 µM and an IC50 (Vero cells) greater than 100 µM.
In the case of `O=C(CCCCCCC(=O)Nc1ccccc1)NO` [SAHA], the “effect of chemotherapeutic drugs on PC3 cell migration” value (PC3 cells [1]) is reported as “induced an increase in cell migration”, the “effect on LNCaP cell migration (migration index)” value (LNCaP cells [3]) is reported as “induced a significant dose-dependent increase in cell migration” and the “concentration of maximum induction of LNCaP cell migration” value (“concentration” for short) (LNCaP cells [3]) is reported as 0.5 µM and 1 µM. For the same compound, the “effect of chemotherapeutic drugs on DU145 cell migration” value (from here on “effect … on DU145 cell migration”) (DU145 cells [6]) was “increased cell migration” and the “levels of Gαi2 protein in LNCaP cells” value (Gαi2 protein [7]) was “induced a reduction in the levels of Gαi2 protein”.
For `CC1(C)C(=O)N(c2ccc(C#N)c(C(F)(F)F)c2)C(=O)N1Cc1ccc(-c2cn(CCCCC(=O)NO)nn2)cc1` [SBI-I-19], the “effect on LNCaP cell migration (migration index)” value (LNCaP cells [3]) was “induced a significant dose-dependent increase in cell migration”, the “concentration” value (LNCaP cells [3]) was 1 µM and 2 µM and the “effect … on DU145 cell migration” value (DU145 cells [6]) was “increased cell migration”. The “levels of Gαi2 protein in LNCaP cells” value (Gαi2 protein [7]) was “increased levels of Gαi2 protein”.
For `CC(O)(CS(=O)(=O)c1ccc(F)cc1)C(=O)Nc1ccc(C#N)c(C(F)(F)F)c1` (centres unmarked) [bicalutamide], the “effect on LNCaP cell migration (migration index)” value (LNCaP cells [3]) was “induced a dose-dependent increase in cell migration”, the “concentration” value (LNCaP cells [3]) was 2.5 µM and the “levels of Gαi2 protein in LNCaP cells” value (Gαi2 protein [7]) was “increased levels of Gαi2 protein”.
With `CC(=O)O[C@@]12CO[C@@H]1C[C@H](O)[C@@]1(C)C(=O)[C@H](O)C3=C(C)[C@@H](OC(=O)[C@H](O)[C@@H](NC(=O)OC(C)(C)C)c4ccccc4)C[C@@](O)([C@@H](OC(=O)c4ccccc4)[C@H]21)C3(C)C` [docetaxel, reference compound] the “effect of chemotherapeutic drugs on PC3 cell migration” value (PC3 cells [1]) was “induced an increase in cell migration” and the “levels of Gαi2 protein in PC3 cells” value (Gαi2 protein [8]) was “had no effect on the levels of Gαi2 protein”.
In the case of `CNC(=O)c1ccc(N2C(=S)N(c3ccc(C#N)c(C(F)(F)F)c3)C(=O)C2(C)C)cc1F` [enzalutamide], the “effect on LNCaP cell migration (migration index)” value (LNCaP cells [3]) is reported as “induced a dose-dependent increase in cell migration”, the “concentration” value (LNCaP cells [3]) is reported as 2.5 µM and the “effect … on DU145 cell migration” value (DU145 cells [6]) is reported as “increased cell migration”. The “levels of Gαi2 protein in LNCaP cells” value (Gαi2 protein [7]) was “increased levels of Gαi2 protein”.
